Molecular target: T1, HDAC6 (Homo sapiens, UniProt Q9UBN7)
T1 construct: Full length human recombinant HDAC6 protein was expressed in baculoviral system; made in house; host or cells: baculoviral system
T1 sequence (Q9UBN7 1-1215): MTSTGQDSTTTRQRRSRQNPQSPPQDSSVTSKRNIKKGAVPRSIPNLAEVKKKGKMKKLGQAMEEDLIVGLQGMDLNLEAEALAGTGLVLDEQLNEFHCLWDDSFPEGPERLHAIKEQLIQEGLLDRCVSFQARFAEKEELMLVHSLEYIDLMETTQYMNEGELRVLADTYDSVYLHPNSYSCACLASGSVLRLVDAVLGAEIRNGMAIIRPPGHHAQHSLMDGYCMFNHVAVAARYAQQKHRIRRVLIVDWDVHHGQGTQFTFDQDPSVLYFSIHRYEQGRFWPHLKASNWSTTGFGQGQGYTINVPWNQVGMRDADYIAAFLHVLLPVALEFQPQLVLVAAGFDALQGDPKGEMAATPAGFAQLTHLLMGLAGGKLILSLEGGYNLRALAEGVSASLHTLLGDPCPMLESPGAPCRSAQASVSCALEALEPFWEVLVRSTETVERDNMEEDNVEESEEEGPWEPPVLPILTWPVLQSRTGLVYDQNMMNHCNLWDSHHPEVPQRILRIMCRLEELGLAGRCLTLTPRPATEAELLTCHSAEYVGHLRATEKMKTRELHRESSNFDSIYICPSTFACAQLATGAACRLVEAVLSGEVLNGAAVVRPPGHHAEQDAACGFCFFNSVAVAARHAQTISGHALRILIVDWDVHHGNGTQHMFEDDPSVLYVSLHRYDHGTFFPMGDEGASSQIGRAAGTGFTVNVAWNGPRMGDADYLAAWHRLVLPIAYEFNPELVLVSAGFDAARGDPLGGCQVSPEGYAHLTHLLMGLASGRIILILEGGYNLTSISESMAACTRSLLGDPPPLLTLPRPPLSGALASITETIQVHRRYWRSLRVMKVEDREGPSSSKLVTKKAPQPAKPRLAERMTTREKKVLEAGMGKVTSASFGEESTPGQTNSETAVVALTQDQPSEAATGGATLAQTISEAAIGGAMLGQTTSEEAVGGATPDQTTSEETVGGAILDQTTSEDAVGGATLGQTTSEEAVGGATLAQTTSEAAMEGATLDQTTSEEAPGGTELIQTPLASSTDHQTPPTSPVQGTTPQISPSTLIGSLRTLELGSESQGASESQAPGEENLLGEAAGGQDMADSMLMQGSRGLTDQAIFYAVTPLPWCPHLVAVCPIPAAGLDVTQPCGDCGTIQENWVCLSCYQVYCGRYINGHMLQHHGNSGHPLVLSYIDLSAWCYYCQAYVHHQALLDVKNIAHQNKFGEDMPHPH
Assay: In vitro Histone Deacetylase Assay (enzymatic HDAC6 electrophoretic mobility shift assay)
Format: biochemical
Settings: full length human recombinant HDAC6, 1 nM enzyme, 2 μM peptide substrate RHKK(Ac)-NH2, 25° C.; read-out: HDAC6 activity range
Summary of the method: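 Deacetylation was read by microfluidic mobility shift as product/(substrate+product) peak ratio and normalised to 0% and 100% inhibition controls. Reactions used 1 nM baculovirus-expressed full-length human HDAC6 and 2 μM labelled RHKK(Ac)-NH2 in pH 7.5 HEPES buffer with 1% DMSO at 25 °C. IC50 was from 4-parameter fits of 12 concentrations.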

| SMILES | IC50 |
| --- | --- |
| O=C(NO)c1ccc2c(c1)CC[C@]1(CCN(c3ccc(F)c(F)c3)C1=O)C2 [Compound I-119, (R)-1′-(3,4-difluorophenyl)-N-hydroxy-2′-oxo-3,4-dihydro-1H-spiro[naphthalene-2,3′-pyrrolidine]-6-carboxamide] | ≤ 100 nM |
| N#Cc1cccc(N2CC[C@@]3(CCc4cc(C(=O)NO)ccc4C3)C2=O)c1 [Compound I-116, (S)-1′-(3-cyanophenyl)-N-hydroxy-2′-oxo-3,4-dihydro-1H-spiro[naphthalene-2,3′-pyrrolidine]-6-carboxamide] | ≤ 100 nM |
| Cc1ccccc1CN1CC[C@@]2(CCc3cc(C(=O)NO)ccc3C2)C1=O [Compound I-66, (S)-N-hydroxy-1′-(2-methylbenzyl)-2′-oxo-3,4-dihydro-1H-spiro[naphthalene-2,3′-pyrrolidine]-6-carboxamide] | ≤ 100 nM |
| Cc1nn(C)cc1N1CC[C@]2(CCc3cc(C(=O)NO)ccc3C2)C1=O [Compound I-98, (R)-1′-(1,3-dimethyl-1H-pyrazol-4-yl)-N-hydroxy-2′-oxo-3,4-dihydro-1H-spiro[naphthalene-2,3′-pyrrolidine]-6-carboxamide] | ≤ 100 nM |
| O=C(NO)c1ccc2c(c1)CC[C@@]1(CCCN(C3CCCC3)C1=O)C2 [Compound I-199, (R)-1′-cyclopentyl-N-hydroxy-2′-oxo-3,4-dihydro-1H-spiro[naphthalene-2,3′-piperidine]-6-carboxamide] | ≤ 100 nM |
| CC#CCN1CC[C@]2(CCc3cc(C(=O)NO)ccc3C2)C1=O [Compound I-35, (R)-1′-(but-2-yn-1-yl)-N-hydroxy-2′-oxo-3,4-dihydro-1H-spiro[naphthalene-2,3′-pyrrolidine]-6-carboxamide] | ≤ 100 nM |
| O=C(NO)c1ccc2c(c1)CC[C@]1(CCN(CC(=O)N3CCOCC3)C1=O)C2 [Compound I-43, (R)-N-hydroxy-1′-(2-morpholino-2-oxoethyl)-2′-oxo-3,4-dihydro-1H-spiro[naphthalene-2,3′-pyrrolidine]-6-carboxamide] | ≤ 100 nM |
| COCCCN1CC2(CCc3cc(C(=O)NO)ccc3C2)CC1=O (single isomer, unassigned) [Compound I-219] | ≤ 100 nM |
| COCCCN1CCCC2(CCc3cc(C(=O)NO)ccc3C2)C1=O (single isomer, unassigned) [Compound I-188] | ≤ 100 nM |
| Cc1ccc(N2CC[C@@]3(CCc4cc(C(=O)NO)ccc4C3)C2=O)c(C)c1 [Compound I-100, (S)-1′-(2,4-dimethylphenyl)-N-hydroxy-2′-oxo-3,4-dihydro-1H-spiro[naphthalene-2,3′-pyrrolidine]-6-carboxamide] | ≤ 100 nM |
| CN1C[C@@]2(CCc3cc(C(=O)NO)ccc3C2)CC1=O (single isomer, unassigned) [Compound I-201] | ≤ 100 nM |
| O=C(NO)c1ccc2c(c1)CC[C@@]1(CCN(Cc3ccccn3)C1=O)C2 [Compound I-78, (S)-N-hydroxy-2′-oxo-1′-(pyridin-2-ylmethyl)-3,4-dihydro-1H-spiro[naphthalene-2,3′-pyrrolidine]-6-carboxamide] | ≤ 100 nM |
| COc1ccc(C(=O)N2CCC3(CCc4cc(C(=O)NO)ccc4O3)CC2)cc1 [II-4, N-hydroxy-1′-(4-methoxybenzoyl)spiro[chromane-2,4′-piperidine]-6-carboxamide] | > 500 nM |
| O=C(NO)c1ccc2c(c1)CC[C@]1(CCN(c3ccccn3)C1=O)C2 [Compound I-20, (R)-N-hydroxy-2′-oxo-1′-(pyridin-2-yl)-3,4-dihydro-1H-spiro[naphthalene-2,3′-pyrrolidine]-6-carboxamide] | ≤ 100 nM |
| O=C(NO)c1ccc2c(c1)CCC1(CCN(Cc3ccncc3)C1=O)O2 (centres unmarked) [Compound I-230, N-hydroxy-2′-oxo-1′-(pyridin-4-ylmethyl)spiro[chromane-2,3′-pyrrolidine]-6-carboxamide] | > 500 nM |
| O=C(NO)c1ccc2c(c1)CC[C@]1(CCN(c3cccnc3)C1=O)C2 [Compound I-10, (R)-N-hydroxy-2′-oxo-1′-(pyridin-3-yl)-3,4-dihydro-1H-spiro[naphthalene-2,3′-pyrrolidine]-6-carboxamide] | ≤ 100 nM |
| O=C(NO)c1ccc2c(c1)CCC1(CCCN(Cc3ccccc3)C1=O)C2 (centres unmarked) [Compound I-176, 1′-benzyl-N-hydroxy-2′-oxo-3,4-dihydro-1H-spiro[naphthalene-2,3′-piperidine]-6-carboxamide] | ≤ 100 nM |
| CN1CCC2(CCc3cc(C(=O)NO)ccc3O2)C1=O (centres unmarked) [Compound I-237, N-hydroxy-1′-methyl-2′-oxospiro[chromane-2,3′-pyrrolidine]-6-carboxamide] | 100 to 500 nM |
| O=C(NO)c1ccc2c(c1)CCC1(CCN(C(=O)N3CC4(CCOCC4)c4ccccc43)CC1)O2 [II-9, N-hydroxy-1′-(2′,3′,5′,6′-tetrahydrospiro[indoline-3,4′-pyran]-1-carbonyl)spiro[chromane-2,4′-piperidine]-6-carboxamide] | > 500 nM |
| O=C(NO)c1ccc2c(c1)CC[C@@]1(CCN(c3ccccc3)C1=O)C2 [Compound I-29, (S)-N-hydroxy-2′-oxo-1′-phenyl-3,4-dihydro-1H-spiro[naphthalene-2,3′-pyrrolidine]-6-carboxamide] | ≤ 100 nM |
| COc1cccc(CN2CC[C@@]3(CCc4cc(C(=O)NO)ccc4C3)C2=O)c1 [Compound I-77, (S)-N-hydroxy-1′-(3-methoxybenzyl)-2′-oxo-3,4-dihydro-1H-spiro[naphthalene-2,3′-pyrrolidine]-6-carboxamide] | ≤ 100 nM |
| O=C(NO)c1ccc2c(c1)CC[C@]1(CCN(c3cccc4c3OCC4)C1=O)C2 [Compound I-96, (R)-1′-(2,3-dihydrobenzofuran-7-yl)-N-hydroxy-2′-oxo-3,4-dihydro-1H-spiro[naphthalene-2,3′-pyrrolidine]-6-carboxamide] | ≤ 100 nM |
| O=C(NO)c1ccc2c(c1)CC[C@]1(CCN(c3cnc4ccccc4c3)C1=O)C2 [Compound I-95, (R)-N-hydroxy-2′-oxo-1′-(quinolin-3-yl)-3,4-dihydro-1H-spiro[naphthalene-2,3′-pyrrolidine]-6-carboxamide] | ≤ 100 nM |
| CC(C)N1CCC2(CCc3cc(C(=O)NO)ccc3O2)C1=O (centres unmarked) [Compound I-235, N-hydroxy-1′-isopropyl-2′-oxospiro[chromane-2,3′-pyrrolidine]-6-carboxamide] | > 500 nM |
| O=C(NO)c1ccc2c(c1)CC[C@]1(CC(=O)N(c3ccccn3)C1)C2 [Compound I-229, (R)-N-hydroxy-5′-oxo-1′-(pyridin-2-yl)-3,4-dihydro-1H-spiro[naphthalene-2,3′-pyrrolidine]-6-carboxamide] | ≤ 100 nM |
| O=C(NO)c1ccc2c(c1)CCC1(CC(=O)N(C3CC3)C1)C2 (single isomer, unassigned) [Compound I-214] | ≤ 100 nM |
| CC(C)CN1CC[C@]2(CCc3cc(C(=O)NO)ccc3C2)C1=O [Compound I-159, (R)-N-hydroxy-1′-isobutyl-2′-oxo-3,4-dihydro-1H-spiro[naphthalene-2,3′-pyrrolidine]-6-carboxamide] | ≤ 100 nM |
| COc1cncc(N2CC[C@@]3(CCc4cc(C(=O)NO)ccc4C3)C2=O)c1 [Compound I-144, (2S)-N-hydroxy-1′-(5-methoxypyridin-3-yl)-2′-oxo-3,4-dihydro-1H-spiro[naphthalene-2,3′-pyrrolidine]-6-carboxamide] | ≤ 100 nM |
| O=C(NO)c1ccc2c(c1)CC[C@]1(CCNC1=O)C2 [Compound I-27, (R)-N-hydroxy-2′-oxo-3,4-dihydro-1H-spiro[naphthalene-2,3′-pyrrolidine]-6-carboxamide] | ≤ 100 nM |
